Experimental data taken from patent US9403835B2, “Tetraaza-cyclopenta[a]indenyl and their use as positive allosteric modulators” (Merck Patent GmbH, priority 2011, dated 2016).

Each molecule was assayed against T1, muscarinic M1 receptor (Homo sapiens, UniProt P11229) (assay: M1 PAM Assay (IP-One HTRF, IP1 in M1-CHO cells with EC20 of acetylcholine)). Details: 1 hour at room temperature, IP1 readout.
T1 construct: expressed in transfected cells; host or cells: CHO (M1-CHO cells)
T1 sequence (P11229 1-460): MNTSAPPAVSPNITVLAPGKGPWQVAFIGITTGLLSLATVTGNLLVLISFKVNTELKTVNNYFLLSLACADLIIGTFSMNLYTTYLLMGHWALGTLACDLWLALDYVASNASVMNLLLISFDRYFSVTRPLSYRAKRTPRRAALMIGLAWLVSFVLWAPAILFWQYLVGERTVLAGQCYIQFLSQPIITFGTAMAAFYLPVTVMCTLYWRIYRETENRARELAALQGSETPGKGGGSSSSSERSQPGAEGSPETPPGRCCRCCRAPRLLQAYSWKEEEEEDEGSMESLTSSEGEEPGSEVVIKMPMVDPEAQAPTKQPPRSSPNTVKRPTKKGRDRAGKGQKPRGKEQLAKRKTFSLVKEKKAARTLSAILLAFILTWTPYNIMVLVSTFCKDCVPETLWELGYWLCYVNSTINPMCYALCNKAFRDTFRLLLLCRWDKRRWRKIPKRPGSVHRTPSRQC
Assay type: cell-based
Protocol: M1-CHO cells are plated in culture medium (HAM's F12, P/S, 10% FCS) on the day before the experiment with 10 000 cells/well in a 384 well plate (3750 Corning White 384 w plate with lid). On the day of experiment, cells are washed with PBS and IPone buffer is added (glucose 5.5 mM, NaCl 146 mM, MgCl2 0.5 mM, HEPES 10 mM, LiCl 50 mM, CaCl2 1 mM, KCl 4.2 mM). Then diluted compounds (1% DMSO final concentration) are added together with EC20 of acetylcholine and incubated with the cells for 1 hour at room temperature. The intracellular concentration of IP1 is then measured using the IP-One HTRF assay from Cisbio.

Q: Which EC50 does the source give for `Cc1nc2c3c(nn2c(C)c1Cl)CN(C(=O)c1ccccc1OC1CCN(C)CC1)C3` [Example 1, (6-chloro-5,7-dimethyl-1H,3H-2,4,7a,8-tetraaza-cyclopenta[a]inden-2-yl)-[2-(1-methyl-piperidin-4-yloxy)-phenyl]-methanone] here?
A: < 200 nM

Q: For `Cc1nc2c3c(nn2c(C)c1Cl)CN(C(=O)c1ccccc1OC(F)(F)C(F)F)C3` [Example 2, (6-chloro-5,7-dimethyl-1H,3H-2,4,7a,8-tetraaza-cyclopenta[a]inden-2-yl)-[2-(1,1,2,2-tetrafluoro-ethoxy)-phenyl]-methanone], which EC50 is on record?
A: < 200 nM

Q: With `Cc1nc2c3c(nn2c(C)c1Cl)CN(C(=O)c1ccccc1OC1CCNCC1)C3` [Example 3, (6-chloro-5,7-dimethyl-1H,3H-2,4,7a,8-tetraaza-cyclopenta[a]inden-2-yl)-[2-(piperidin-4-yloxy)-phenyl]-methanone] as the molecule, how does the EC50 read?
A: < 200 nM

Q: With `Cc1nc2c3c(nn2c(C)c1C)CN(C(=O)c1ccccc1OC1CCN(C)CC1)C3` [Example 4, [2-(1-methyl-piperidin-4-yloxy)-phenyl]-(5,6,7-trimethyl-1H,3H-2,4,7a,8-tetraaza-cyclopenta[a]inden-2-yl)-methanone] as the molecule, how does the EC50 read?
A: 200 to 1000 nM

Q: With `CCOc1cc(F)ccc1C(=O)N1Cc2nn3c(C)c(Cl)c(C)nc3c2C1` [Example 5, (6-chloro-5,7-dimethyl-1H,3H-2,4,7a,8-tetraaza-cyclopenta[a]inden-2-yl)-(2-ethoxy-4-fluoro-phenyl)-methanone] as the molecule, how does the EC50 read?
A: 200 to 1000 nM

Q: How did the EC50 turn out when `Cc1nc2c3c(nn2c(C)c1Cl)CN(C(=O)c1ccccc1N1CCCN(C)CC1)C3` [Example 6, (6-chloro-5,7-dimethyl-1H,3H-2,4,7a,8-tetraaza-cyclopenta[a]inden-2-yl)-[2-(4-methyl-[1,4]diazepan-1-yl)-phenyl]-methanone] was run?
A: 200 to 1000 nM

Q: `Cc1nc2c3c(nn2c(C)c1Cl)CN(C(=O)c1ccccc1N1CCCC1)C3` [Example 7, (6-chloro-5,7-dimethyl-1H,3H-2,4,7a,8-tetraaza-cyclopenta[a]inden-2-yl)-(2-pyrrolidin-1-yl-phenyl)-methanone] was tested. Which EC50 did it give?
A: 200 to 1000 nM

Q: Which EC50 does the source give for `Cc1nc2c3c(nn2c(C)c1Cl)CN(C(=O)c1ccccc1OC(C)C)C3` [Example 9, (6-chloro-5,7-dimethyl-1H,3H-2,4,7a,8-tetraaza-cyclopenta[a]inden-2-yl)-(2-isopropoxy-phenyl)-methanone] here?
A: 200 to 1000 nM

Q: `CCOc1ccccc1C(=O)N1Cc2nn3c(C)c(C)c(C)nc3c2C1` [Example 12, (2-ethoxy-phenyl)-(5,6,7-trimethyl-1H,3H-2,4,7a,8-tetraaza-cyclopenta[a]inden-2-yl)-methanone] was tested. Which EC50 did it give?
A: 200 to 1000 nM

Q: `CCOc1ccc(F)cc1C(=O)N1Cc2nn3c(C)c(C)c(C)nc3c2C1` [Example 13, (2-ethoxy-5-fluoro-phenyl)-(5,6,7-trimethyl-1H,3H-2,4,7a,8-tetraaza-cyclopenta[a]inden-2-yl)-methanone] was tested. Which EC50 did it give?
A: 200 to 1000 nM

Q: For `Cc1nc2c3c(nn2c(C)c1C)CN(C(=O)c1ccccc1OC(F)(F)F)C3` [Example 17, (2-trifluoromethoxy-phenyl)-(5,6,7-trimethyl-1H,3H-2,4,7a,8-tetraaza-cyclopenta[a]inden-2-yl)-methanone], which EC50 is on record?
A: 200 to 1000 nM

Q: `Cc1nc2c3c(nn2c(C)c1Cl)CN(C(=O)c1ccc(F)cc1OCCn1cccn1)C3` [Example 18, (6-chloro-5,7-dimethyl-1H,3H-2,4,7a,8-tetraaza-cyclopenta[a]inden-2-yl)-[4-fluoro-2-(2-pyrazol-1-yl-ethoxy)-phenyl]-methanone] was tested. Which EC50 did it give?
A: 200 to 1000 nM

Q: For `Cc1nc2c3c(nn2c(C)c1C)CN(C(=O)c1ccccc1N1CCCN(C)CC1)C3` [Example 19, [2-(4-methyl-[1,4]diazepan-1-yl)-phenyl]-(5,6,7-trimethyl-1H,3H-2,4,7a,8-tetraaza-cyclopenta[a]inden-2-yl)-methanone], which EC50 is on record?
A: 200 to 1000 nM

Q: How did the EC50 turn out when `Cc1nc2c3c(nn2c(C)c1C)CN(C(=O)c1ccccc1OCCN1CCCCC1)C3` [Example 20, [2-(2-piperidin-1-yl-ethoxy)-phenyl]-(5,6,7-trimethyl-1H,3H-2,4,7a,8-tetraaza-cyclopenta[a]inden-2-yl)-methanone] was run?
A: 200 to 1000 nM

Q: Which EC50 does the source give for `CCCCOc1ccccc1C(=O)N1Cc2nn3c(C)c(C)c(C)nc3c2C1` [Example 21, (2-butoxy-phenyl)-(5,6,7-trimethyl-1H,3H-2,4,7a,8-tetraaza-cyclopenta[a]inden-2-yl)-methanone] here?
A: 200 to 1000 nM

Q: Which EC50 does the source give for `CC(=O)Oc1ccccc1C(=O)N1Cc2nn3c(C)c(C)c(C)nc3c2C1` [Example 23, acetic acid 2-(5,6,7-trimethyl-1H,3H-2,4,7a,8-tetraaza-cyclopenta[a]indene-2-carbonyl)-phenyl ester] here?
A: 200 to 1000 nM

Q: `Cc1nc2c3c(nn2c(C)c1C)CN(C(=O)c1ccccc1OCCn1cccn1)C3` [Example 24, [2-(2-pyrazol-1-yl-ethoxy)-phenyl]-(5,6,7-trimethyl-1H,3H-2,4,7a,8-tetraaza-cyclopenta[a]inden-2-yl)-methanone] was tested. Which EC50 did it give?
A: 200 to 1000 nM

Q: Which EC50 does the source give for `CSc1ccccc1C(=O)N1Cc2nn3c(C)c(C)c(C)nc3c2C1` [Example 25, (2-methylsulfanyl-phenyl)-(5,6,7-trimethyl-1H,3H-2,4,7a,8-tetraaza-cyclopenta[a]inden-2-yl)-methanone] here?
A: 200 to 1000 nM

Q: How did the EC50 turn out when `Cc1nc2c3c(nn2c(C)c1C)CN(C(=O)c1ccccc1OC(C)C)C3` [Example 26, (2-isopropoxy-phenyl)-(5,6,7-trimethyl-1H,3H-2,4,7a,8-tetraaza-cyclopenta[a]inden-2-yl)-methanone] was run?
A: 200 to 1000 nM

Q: How did the EC50 turn out when `CCOc1ccccc1C(=O)N1Cc2nn3c(C)c(CC)c(C)nc3c2C1` [Example 27, (2-ethoxy-phenyl)-(6-ethyl-5,7-dimethyl-1H,3H-2,4,7a,8-tetraaza-cyclopenta[a]inden-2-yl)-methanone] was run?
A: 1000 to 2000 nM

Q: For `Cc1nc2c3c(nn2c(C)c1C)CN(C(=O)c1ccccc1OCc1ccccc1)C3` [Example 29, (2-benzyloxy-phenyl)-(5,6,7-trimethyl-1H,3H-2,4,7a,8-tetraaza-cyclopenta[a]inden-2-yl)-methanone], which EC50 is on record?
A: 1000 to 2000 nM

Q: How did the EC50 turn out when `CCOc1ccccc1C(=O)N1Cc2nn3cc(C)c(C)nc3c2C1` [Example 31, (5,6-Dimethyl-1H,3H-2,4,7a,8-tetraaza-cyclopenta[a]inden-2-yl)-(2-ethoxy-phenyl)-methanone] was run?
A: 1000 to 2000 nM

Q: `Cc1cn2nc3c(c2nc1C)CN(C(=O)c1ccccc1OCCN(C)C)C3` [Example 32, [2-(2-dimethylamino-ethoxy)-phenyl]-(5,6-dimethyl-1H,3H-2,4,7a,8-tetraaza-cyclopenta[a]inden-2-yl)-methanone] was tested. Which EC50 did it give?
A: 1000 to 2000 nM

Q: How did the EC50 turn out when `Cc1cn2nc3c(c2nc1C)CN(C(=O)c1ccccc1N1CCCN(C)CC1)C3` [Example 33, (5,6-dimethyl-1H,3H-2,4,7a,8-tetraaza-cyclopenta[a]inden-2-yl)-[2-(4-methyl-[1,4]diazepan-1-yl)-phenyl]-methanone] was run?
A: 1000 to 2000 nM

Q: For `CCOc1ccc(Cl)cc1C(=O)N1Cc2nn3c(C)c(C)c(C)nc3c2C1` [Example 34, (5-chloro-2-ethoxy-phenyl)-(5,6,7-trimethyl-1H,3H-2,4,7a,8-tetraaza-cyclopenta[a]inden-2-yl)-methanone], which EC50 is on record?
A: 1000 to 2000 nM

Q: `Cc1nc2c3c(nn2c(C)c1Cl)CN(C(=O)c1ccccc1OC1CCOCC1)C3` [Example 35, (6-chloro-5,7-dimethyl-1H,3H-2,4,7a,8-tetraaza-cyclopenta[a]inden-2-yl)-[2-(tetrahydro-pyran-4-yloxy)-phenyl]-methanone] was tested. Which EC50 did it give?
A: 1000 to 2000 nM
